Assay results as given in ChEMBL document CHEMBL4842360, “Discovery of a Bicyclic Peptidyl Pan-Ras Inhibitor” (J Med Chem, 2021).
pEC50: −log10 of the molar value.

How the values were obtained:
[1] = system: NCI-H358; assay: Antiproliferative activity against human NCI-H358 cells incubated for 96 hrs by Celltiter-Glo assay; type: functional, cell-based; settings: for EC50: nci-h358; for pEC50: Homo sapiens, NCI-H358, 96 h, read-out: EC50
[2] = molecular target: GTPase KRas (Homo sapiens, UniProt P01116, G12V); assay: Inhibition of His6-tagged KRas G12V mutant (unknown origin) expressed in Escherichia coli BL21(DE3) cells assessed as reduction in Ras/GST-fused Raf RBD interaction incubated for 1 hr by HTRF assay
GTPase KRas, sequence (P01116 whole entry G12V, the tested form may be a part): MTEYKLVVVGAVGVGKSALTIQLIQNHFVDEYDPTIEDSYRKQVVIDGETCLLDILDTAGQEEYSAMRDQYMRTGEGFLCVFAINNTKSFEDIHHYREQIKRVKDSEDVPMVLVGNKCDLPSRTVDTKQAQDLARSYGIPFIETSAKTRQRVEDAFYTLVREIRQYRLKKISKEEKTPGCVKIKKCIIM

pEC50 [1]	SMILES	further results
–	C[C@@H]1NC(=O)[C@@H](Cc2ccccc2)NC(=O)[C@@H]2CCCCNC(=O)c3cc(cc(c3)C(=O)N[C@H](Cc3ccc4ccccc4c3)C(=O)N[C@@H](CO)C(=O)N[C@@H](CC(N)=O)C(=O)N[C@H](Cc3ccc4ccccc4c3)C(=O)N[C@@H](c3ccccc3)C(=O)N2)C(=O)NC[C@@H](C(=O)N[C@@H](CN)C(=O)N[C@H](CCCNC(=N)N)C(=O)N[C@@H](Cc2ccc(F)cc2)C(=O)N[C@H](C)C(N)=O)NC(=O)[C@H](CCCNC(=N)N)NC(=O)[C@@H](CCCNC(=N)N)NC1=O	EC50 [1]: Not Active
5.14	CC[C@H]1NC(=O)[C@@H](Cc2ccccc2)NC(=O)[C@@H]2CCCCNC(=O)c3cc(cc(c3)C(=O)N[C@H](Cc3ccc4ccccc4c3)C(=O)N[C@@H](CO)C(=O)N[C@@H](CC(N)=O)C(=O)N[C@H](Cc3ccc4ccccc4c3)C(=O)N[C@@H](c3ccccc3)C(=O)N2)C(=O)NC[C@@H](C(=O)N[C@@H](CCCN)C(=O)N[C@H](CCCNC(=N)N)C(=O)N[C@@H](Cc2ccccc2)C(=O)N[C@H](C)C(N)=O)NC(=O)[C@H](CCCNC(=N)N)NC(=O)[C@@H](CCCNC(=N)N)NC1=O	–
–	C[C@@H]1NC(=O)[C@@H](Cc2ccccc2)NC(=O)[C@@H]2CCCCNC(=O)c3cc(cc(c3)C(=O)N[C@H](Cc3ccc4ccccc4c3)C(=O)N[C@@H](CO)C(=O)N[C@@H](CCC(N)=O)C(=O)N[C@H](Cc3ccc4ccccc4c3)C(=O)N[C@@H](c3ccccc3)C(=O)N2)C(=O)NC[C@@H](C(=O)N2CCC[C@@H]2C(=O)N[C@H](CCCNC(=N)N)C(=O)N[C@H](Cc2ccccc2)C(=O)N[C@H](Cc2ccc(O)cc2)C(N)=O)NC(=O)[C@H](CCCNC(=N)N)NC(=O)[C@@H](CCCNC(=N)N)NC1=O	IC50 [2]: Not Active
5.04	C[C@@H]1NC(=O)[C@@H](Cc2ccccc2)NC(=O)[C@@H]2CCCCNC(=O)c3cc(cc(c3)C(=O)N[C@H](Cc3ccc4ccccc4c3)C(=O)N[C@@H](CO)C(=O)N[C@@H](CC(N)=O)C(=O)N[C@H](Cc3ccc4ccccc4c3)C(=O)N[C@@H](c3ccccc3)C(=O)N2)C(=O)NC[C@@H](C(=O)N[C@@H](CCCN)C(=O)N[C@H](CCCNC(=N)N)C(=O)N[C@@H](CCc2ccccc2)C(=O)N[C@H](C)C(N)=O)NC(=O)[C@H](CCCNC(=N)N)NC(=O)[C@@H](CCCNC(=N)N)NC1=O	–
4.77	C[C@@H](NC(=O)[C@H](Cc1ccccc1)NC(=O)[C@@H](CCCNC(=N)N)NC(=O)[C@H](CCCN)NC(=O)[C@@H]1CNC(=O)c2cc3cc(c2)C(=O)N[C@H](Cc2csc4ccccc24)C(=O)N[C@@H](CO)C(=O)N[C@@H](CC(N)=O)C(=O)N[C@H](Cc2ccc4ccccc4c2)C(=O)N[C@@H](c2ccccc2)C(=O)N[C@@H](CCCCNC3=O)C(=O)N[C@H](Cc2ccccc2)C(=O)N[C@H](CCC(N)=O)C(=O)N[C@H](CCCNC(=N)N)C(=O)N[C@@H](CCCNC(=N)N)C(=O)N1)C(N)=O	–
5.28	N=C(N)NCCC[C@@H]1NC(=O)[C@@H](CCCNC(=N)N)NC(=O)[C@@H](CCC(N)=O)NC(=O)[C@@H](Cc2ccccc2)NC(=O)[C@@H]2CCCCNC(=O)c3cc(cc(c3)C(=O)N[C@H](Cc3ccc4ccccc4c3)C(=O)N[C@@H](CO)C(=O)N[C@@H](CC(N)=O)C(=O)N[C@H](Cc3ccc4ccccc4c3)C(=O)N[C@@H](c3ccccc3)C(=O)N2)C(=O)NC[C@@H](C(=O)N[C@@H](CCCN)C(=O)N[C@H](CCCNC(=N)N)C(=O)N[C@@H](Cc2ccccc2)C(=O)N[C@H](CO)C(N)=O)NC1=O	–
5.13	C[C@H](NC(=O)C[C@H](Cc1ccccc1)NC(=O)[C@@H](CCCNC(=N)N)NC(=O)[C@H](CCCN)NC(=O)[C@@H]1CNC(=O)c2cc3cc(c2)C(=O)N[C@H](Cc2ccc4ccccc4c2)C(=O)N[C@@H](CO)C(=O)N[C@@H](CC(N)=O)C(=O)N[C@H](Cc2ccc4ccccc4c2)C(=O)N[C@@H](c2ccccc2)C(=O)N[C@@H](CCCCNC3=O)C(=O)N[C@H](Cc2ccccc2)C(=O)N[C@H](CCC(N)=O)C(=O)N[C@H](CCCNC(=N)N)C(=O)N[C@@H](CCCNC(=N)N)C(=O)N1)C(N)=O	–
–	C[C@@H]1NC(=O)[C@@H](Cc2ccccc2)NC(=O)[C@@H]2CCCCNC(=O)c3cc(cc(c3)C(=O)N[C@H](Cc3ccc4ccccc4c3)C(=O)N[C@@H](CO)C(=O)N[C@@H](CC(N)=O)C(=O)N[C@H](Cc3ccc4ccccc4c3)C(=O)N[C@@H](c3ccccc3)C(=O)N2)C(=O)NC[C@@H](C(=O)N[C@@H](CCCN)C(=O)N[C@H](CCCNC(=N)N)C(=O)N[C@@H](Cc2c[nH]c3ccccc23)C(=O)N[C@H](C)C(N)=O)NC(=O)[C@H](CCCNC(=N)N)NC(=O)[C@@H](CCCNC(=N)N)NC1=O	EC50 [1]: Not Active
4.80	C[C@@H]1NC(=O)[C@@H](Cc2ccccc2)NC(=O)[C@@H]2CCCCNC(=O)c3cc(cc(c3)C(=O)N[C@H](Cc3ccc4ccccc4c3)C(=O)N[C@@H](CO)C(=O)N[C@@H](CC(N)=O)C(=O)N[C@H](Cc3ccc4ccccc4c3)C(=O)N[C@@H](c3ccccc3)C(=O)N2)C(=O)NC[C@@H](C(=O)N[C@@H](CCN)CC(=O)N[C@H](CCCNC(=N)N)C(N)=O)NC(=O)[C@H](CCCNC(=N)N)NC(=O)[C@@H](CCCNC(=N)N)NC1=O	–
5.31	C[C@@H]1NC(=O)[C@H](CO)NC(=O)[C@@H](Cc2ccc3ccccc3c2)NC(=O)c2cc3cc(c2)C(=O)NC[C@@H](C(=O)N[C@@H](CCCN)C(=O)N[C@H](CCCNC(=N)N)C(=O)N[C@@H](Cc2ccccc2)C(=O)N[C@H](C)C(N)=O)NC(=O)[C@H](CCCNC(=N)N)NC(=O)[C@@H](CCCNC(=N)N)NC(=O)[C@@H](CCC(N)=O)NC(=O)[C@@H](Cc2ccccc2)NC(=O)[C@H](CCCCNC3=O)NC(=O)[C@H](c2ccccc2)NC(=O)[C@@H](Cc2ccc3ccccc3c2)NC1=O	–
–	C[C@@H](NC(=O)[C@H](Cc1ccccc1)NC(=O)[C@@H](CCCNC(=N)N)NC(=O)[C@H](CCCN)NC(=O)[C@@H]1CNC(=O)c2cc3cc(c2)C(=O)N[C@H](Cc2ccc4ccccc4c2)C(=O)N[C@@H](CCO)C(=O)N[C@@H](CC(N)=O)C(=O)N[C@H](Cc2ccc4ccccc4c2)C(=O)N[C@@H](c2ccccc2)C(=O)N[C@@H](CCCCNC3=O)C(=O)N[C@H](Cc2ccccc2)C(=O)N[C@H](CCC(N)=O)C(=O)N[C@H](CCCNC(=N)N)C(=O)N[C@@H](CCCNC(=N)N)C(=O)N1)C(N)=O	EC50 [1]: Not Active
5.32	CC(C)C[C@H]1NC(=O)[C@@H](Cc2ccccc2)NC(=O)[C@@H]2CCCCNC(=O)c3cc(cc(c3)C(=O)N[C@H](Cc3ccc4ccccc4c3)C(=O)N[C@@H](CO)C(=O)N[C@@H](CC(N)=O)C(=O)N[C@H](Cc3ccc4ccccc4c3)C(=O)N[C@@H](c3ccccc3)C(=O)N2)C(=O)NC[C@@H](C(=O)N[C@@H](CCCN)C(=O)N[C@H](CCCNC(=N)N)C(=O)N[C@@H](Cc2ccccc2)C(=O)N[C@H](C)C(N)=O)NC(=O)[C@H](CCCNC(=N)N)NC(=O)[C@@H](CCCNC(=N)N)NC1=O	–
5.15	CC(C)[C@H](NC(=O)[C@H](Cc1ccccc1)NC(=O)[C@@H](CCCNC(=N)N)NC(=O)[C@H](CCCN)NC(=O)[C@@H]1CNC(=O)c2cc3cc(c2)C(=O)N[C@H](Cc2ccc4ccccc4c2)C(=O)N[C@@H](CO)C(=O)N[C@@H](CC(N)=O)C(=O)N[C@H](Cc2ccc4ccccc4c2)C(=O)N[C@@H](c2ccccc2)C(=O)N[C@@H](CCCCNC3=O)C(=O)N[C@H](Cc2ccccc2)C(=O)N[C@H](CCC(N)=O)C(=O)N[C@H](CCCNC(=N)N)C(=O)N[C@@H](CCCNC(=N)N)C(=O)N1)C(N)=O	–
5.35	C[C@@H]1NC(=O)[C@@H](Cc2ccccc2)NC(=O)[C@@H]2CCCCNC(=O)c3cc(cc(c3)C(=O)N[C@H](Cc3ccc4ccccc4c3)C(=O)N[C@@H](CO)C(=O)N[C@@H](CC(N)=O)C(=O)N[C@H](Cc3ccc4ccccc4c3)C(=O)N[C@@H](c3ccccc3)C(=O)N2)C(=O)NC[C@@H](C(=O)N[C@@H](CCCN)C(=O)N[C@H](CCCNC(=N)N)C(=O)N[C@H](C(=O)N[C@H](C)C(N)=O)c2ccccc2)NC(=O)[C@H](CCCNC(=N)N)NC(=O)[C@@H](CCCNC(=N)N)NC1=O	–
5.28	C[C@@H](NC(=O)[C@H](Cc1ccccc1)NC(=O)[C@@H](CCCNC(=N)N)NC(=O)[C@H](CCCN)NC(=O)[C@@H]1CNC(=O)c2cc3cc(c2)C(=O)N[C@H](Cc2ccc4ccccc4c2)C(=O)N[C@@H](CO)C(=O)N[C@@H](CC(N)=O)C(=O)N[C@H](Cc2csc4ccccc24)C(=O)N[C@@H](c2ccccc2)C(=O)N[C@@H](CCCCNC3=O)C(=O)N[C@H](Cc2ccccc2)C(=O)N[C@H](CCC(N)=O)C(=O)N[C@H](CCCNC(=N)N)C(=O)N[C@@H](CCCNC(=N)N)C(=O)N1)C(N)=O	–
5.59	C[C@@H](O)[C@H](NC(=O)[C@H](Cc1ccccc1)NC(=O)[C@@H](CCCNC(=N)N)NC(=O)[C@H](CCCN)NC(=O)[C@@H]1CNC(=O)c2cc3cc(c2)C(=O)N[C@H](Cc2ccc4ccccc4c2)C(=O)N[C@@H](CO)C(=O)N[C@@H](CC(N)=O)C(=O)N[C@H](Cc2ccc4ccccc4c2)C(=O)N[C@@H](c2ccccc2)C(=O)N[C@@H](CCCCNC3=O)C(=O)N[C@H](Cc2ccccc2)C(=O)N[C@H](CCC(N)=O)C(=O)N[C@H](CCCNC(=N)N)C(=O)N[C@@H](CCCNC(=N)N)C(=O)N1)C(N)=O	–
5.05	C[C@@H]1NC(=O)[C@@H](Cc2ccccc2)NC(=O)[C@@H]2CCCCNC(=O)c3cc(cc(c3)C(=O)N[C@H](Cc3ccc4ccccc4c3)C(=O)N[C@@H](CO)C(=O)N[C@@H](CC(N)=O)C(=O)N[C@H](Cc3ccc4ccccc4c3)C(=O)N[C@@H](c3ccccc3)C(=O)N2)C(=O)NC[C@@H](C(=O)N[C@@H](CC(N)=O)C(=O)N[C@H](CCCNC(=N)N)C(=O)N[C@@H](Cc2cccc(Cl)c2)C(=O)N[C@H](C)C(N)=O)NC(=O)[C@H](CCCNC(=N)N)NC(=O)[C@@H](CCCNC(=N)N)NC1=O	–
5.19	C[C@@H](NC(=O)[C@H](Cc1ccccc1)NC(=O)[C@@H](CCCNC(=N)N)NC(=O)[C@H](CCCN)NC(=O)[C@@H]1CNC(=O)c2cc3cc(c2)C(=O)N[C@H](Cc2ccc4ccccc4c2)C(=O)N[C@@H](CO)C(=O)N[C@@H](CC(N)=O)C(=O)N[C@H](Cc2ccc4ccccc4c2)C(=O)N[C@@H](c2ccccc2)C(=O)N[C@@H](CCCCNC3=O)C(=O)N[C@H](Cc2ccccc2)C(=O)N[C@H](CCCN)C(=O)N[C@H](CCCNC(=N)N)C(=O)N[C@@H](CCCNC(=N)N)C(=O)N1)C(N)=O	–
